Experimental data from a melting point compilation (Tetko et al.; mined from patent text by program, amines drawn as free bases though some values may be those of a salt).

| Structure (SMILES) | melting point |
| --- | --- |
| CN1CCN(c2ncc(-c3cc(Cl)cc(Cl)c3Cl)c(N)n2)CC1 | 162 to 164 °C |
| O/N=C(/CCN1CCN(c2ncccn2)CC1)c1ccccc1 | 175 to 177 °C |
| CSc1cc(-n2ncc(-c3ccc(S(C)(=O)=O)cc3)c(-c3ccc(F)cc3)c2=O)ccc1F | 105 to 107 °C |
| COc1cc2c(cc1OC)CN(CCCOc1ccc(NC(=O)c3cccc4c(=O)c5cccc(OC)c5[nH]c34)cc1)CC2 | 190 °C |
| CCn1c(=O)c(C)cc2cnc(SC)nc21 | 84 to 86 °C |
| Cn1c2cccc(Br)c2c2nc3ccccc3nc21 | 208 to 209 °C |
| COC(=O)c1cc(-c2ccc(OC)c(F)c2)nn(CC=Cc2ccc(Cl)cc2)c1=O | 131 to 132 °C |
| CC(=O)N1CC(CCN2CC=C(c3c[nH]c4cc(Cl)ccc34)CC2)c2cc(C)ccc21 (stereo unspecified) | 179 to 181 °C |
| Cc1c(C(=O)C(=O)NC2=CC(=O)OC2)c2ccccc2n1Cc1ccc(Cl)cc1 | 254 to 256 °C |
| O=C1CCOc2ccc(/C=C/c3nc4cc(F)ccc4s3)cc21 | 197 to 199 °C |
| C#CC(O)(CO)C(O)c1ncnc2c1ncn2Cc1ccc2c(c1)Nc1nccnc1S2 (stereo unspecified) | 79 to 84 °C |
| CCOC(=O)c1cnc2ccc(OCC)nc2c1Cl | 61 to 64 °C |
| Cc1nnc2n1-c1sccc1C(c1ccccc1[N+](=O)[O-])=NC2 | 260 to 262 °C |
| COc1cc(C=CC(CSc2ccccc2)=NO)ccc1O | 90 to 100 °C |
| Fc1cccc(F)c1-c1nccc(-c2ccc(Br)cc2)n1 | 130 to 131 °C |
| O=C(O)COc1ccccc1Cn1nc(-c2cccs2)c(Cc2cc3c(cc2Cl)OCO3)c1C(=O)O | > 260 °C |
| CCOC(=O)c1ccc(CCc2cnc3[nH]c(N)nc(N)c2-3)cc1 | 202 to 204 °C |
| CCOC(=O)Nc1cccc(-c2ccc3nnc(C)n3n2)c1 | 232 to 235 °C |
| COC(=O)c1ccc(-c2ccc(C#N)s2)nc1 | 164 to 166 °C |
| NC(=O)N(O)CCNC(=O)c1cccc(Oc2ccccn2)c1 | 159 to 160 °C |
| CC(=O)c1ccc(S(=O)(=O)NC(C)(C)C(=O)O)cc1 | 157 to 158 °C |

| Structure (SMILES) | melting point |
| --- | --- |
| COc1ccc(CCOc2cccc(-c3cccc(C(=O)NCCN4CCCC4)c3)n2)cc1OC | 126 to 127 °C |
| Cc1[nH]c(Cl)c(C#N)c1SC#N | 171 °C |
| CC(C(=O)O)c1ccc(CC2CCCCC2=O)cc1 (stereo unspecified) | 84 to 86 °C |
| CCn1c(CO)nc2cccnc21 | 117 to 121 °C |
| COc1ccc(-c2nnc3c4ccccc4c(N(C)CCCCl)nn23)cc1 | 113 to 115 °C |
| CC(C)(C)SC(=O)C=CC1C(C(=O)OC(C#N)c2ccc(F)c(Oc3ccccc3)c2)C1(C)C (stereo unspecified) | 96 °C |
| NC1=Nc2ccc([N+](=O)[O-])cc2C(c2ccccc2F)=NC1 | 225 to 227 °C |
| COc1ccc(-c2nc(C)c(-c3cccnc3)n2O)cc1OC | 131 to 135 °C |
| CCCN1CCC(=O)C2=C1COc1ccc(OC)cc12 | 97 to 100 °C |
| COc1ccc(C(=O)Nc2ccc(-c3ccc4c(c3)OCO4)cc2)cc1CCCN(C)C | 190 to 192 °C |
| CC(C)c1cccc(C(C)C)c1N=c1cccc(-c2cccc3ccccc23)[nH]1 | 142 to 144 °C |
| C#Cc1ccc(SC)cc1Cl | 46 to 50 °C |
| COC(=O)c1sccc1S(=O)(=O)NC(=O)Nc1nc(C)cc(OC(F)F)n1 | 178 to 179 °C |
| COc1cccc(-c2c3c(cc4ccc(O)cc24)-c2ccc(O)cc2CO3)c1 | 220 to 223 °C |
| O=C(NCNC(=O)c1ccccc1C(=O)c1ccccc1)Nc1cccc(C(=O)OCc2ccccc2)c1 | 157 to 159 °C |
| CC(=O)SCC(CC(C)C)C(=O)NCCCCCCCC(=O)N[C@@H](CCCNC(=N)N)C(=O)O (stereo partly specified) | 85 to 102 °C |
| CC(C(=O)O)c1ccc2oc(-c3ccc(Cl)cc3)nc2c1 (stereo unspecified) | 190 °C |
| COc1cc2c(Nc3cccc(Cl)c3F)ncnc2cc1OC1CCN(C(=O)[C@@H](C)O)CC1 | 107 to 111 °C |
| C#CCOc1ccc2ccc(=O)oc2c1 | 118 °C |
| CCc1nc2c(N)nc3ccc(O)cc3c2n1C | > 240 °C |
| Cn1c(=O)c(C(=O)O)nc2cc(F)c([N+](=O)[O-])cc21 | 173 to 175 °C |

| Structure (SMILES) | melting point |
| --- | --- |
| CCOc1ccc2c(c1)C(C)(c1ccccc1Cl)C(=O)N2S(=O)(=O)c1ccc(N)cc1OC (stereo unspecified) | 211 °C |
| CC(C)(C)SC1CN(C(=O)NCCN2C(=O)c3ccccc3C2=O)CC1NS(=O)(=O)c1ccc(Oc2ccccc2)cc1 (stereo unspecified) | 105 to 106 °C |
| CC(C)(CNC=O)c1ccc(N)c([N+](=O)[O-])c1 | 113 to 115 °C |
| O=C(O)CNC(=NS(=O)(=O)c1ccccc1)Nc1cccc(Cl)c1 | 218 °C |
| O=C1NC(=S)SC1=Cc1cccc(Cl)c1Cl | 203 to 204 °C |
| Cc1ccsc1C(Cc1ccccc1N)N(C)C (stereo unspecified) | 75 to 77 °C |
| CCN(CC)CCN1c2cc(Cl)ccc2S[C@H]2[C@@H](OC(=O)c3ccccc3)[C@H](OC(=O)c3ccccc3)[C@@H](COC(=O)c3ccccc3)O[C@H]21 | 124 to 126 °C |
| COC(=O)[C@@H](OS(=O)(=O)c1ccc(C)cc1)[C@H](O)c1ccc(F)cc1 | 122 to 124 °C |
| COC(=O)C12CCc3cc(Cl)ccc3C1=NN(C(=O)Nc1ccc(C(F)(F)F)cc1)C2 (stereo unspecified) | 234 to 236 °C |
| O=C1N(Cc2ccco2)c2ccccc2C12COc1cc3c(cc12)OCO3 (stereo unspecified) | 110 to 112 °C |
| CCOc1ccc2c(c1)n(C1CCCCC1)c(=O)n2Cc1ccc(NC(=O)N(C)CCO)cc1OC | 157 °C |
| CC1Nc2ccc(NC(=O)c3ccc(C(=NN)C(=O)OCc4ccccc4)cc3)cc2CN(CCc2ccccc2)C1=O (stereo unspecified) | 120 °C |
| Fc1ccc(/C=C/C2=CCN(Cc3c[nH]c4ncccc34)CC2)cc1 | 211 to 213 °C |
| CNC(=O)Nc1c2c(nc3sccc13)CCCC2 | 253 to 255 °C |
| CC(COc1cccc(Oc2ccccc2)c1)OS(N)(=O)=O (stereo unspecified) | 81 to 84 °C |
| N#Cc1cc(NCc2cc3c(cc2O)CCO3)cs1 | 138 to 139 °C |
| CS(=O)(=O)c1ccc(C(=O)O)c(F)c1F | 214 to 215 °C |
| CN(Cc1ccc(NC(=O)C2=Cc3cc(OCc4ccccc4Cl)ccc3S(=O)(=O)CC2)cc1)C1CCOCC1 | 205 to 207 °C |
| CC(C)(C)OC(=O)NC(C)(C)c1ccc(-c2nc(Nc3ccc(OCCO)cc3)ncc2C#N)cc1 | 126 to 127 °C |

Continued, values first:

| melting point | Structure (SMILES) |
| --- | --- |
| 108 to 110 °C | COc1cc(C)c(OC)cc1C |
| 229 to 231 °C | COc1cccc2c1nc(C(F)F)n2-c1nc(NC2CCN(C(=O)OC(C)(C)C)CC2)c([N+](=O)[O-])c(N2CCOCC2)n1 |
| 201 to 202 °C | CC1(C)CCc2c(N3CCCC3)nc3sc4c(NCc5ccco5)ncnc4c3c2C1 |
| 159 to 162 °C | CC(=O)N1C2=NC(C)(C)N(C)C(=O)N2c2ccccc21 |
| 205 to 206 °C | CCOC(=O)c1cn(CCCl)c2nc(N3CCN(C(C)=O)CC3)ncc2c1=O |
| 113 to 116 °C | CCC=C(c1ccccc1N1CCCC(C)(C)C1)C(C(N)=O)c1ccc(C(=O)OCC)cc1 (stereo unspecified) |
| 143 °C | CCc1nc2c(C)nc(C)cc2n1-c1ccc(CCNC(=O)NS(=O)(=O)c2ccc(C)cc2)cc1 |
| 115 to 117 °C | Nc1ccc(S(=O)(=O)CCO)cc1O |
| 147 to 149 °C | O=C(CCCCN1CCC(Cc2ccccc2)CC1)c1ccc2c(c1)Cc1cc(C(=O)CCCCN3CCC(Cc4ccccc4)CC3)ccc1-2 |
| 153 to 154 °C | CCCCCCCCCCCCS(=O)(=O)c1cc(C(=O)O)c([N+](=O)[O-])c(S(=O)(=O)CCCCCCCCCCCC)c1 |
| 183 to 184 °C | COc1cccc(/C=C/C(=O)Nc2ccccc2C(=O)O)c1 |
| 106 to 107 °C | CCCC[C@H](NC(=O)[C@H](CC(C)C)NC(=O)c1c(F)cccc1C(F)(F)F)C(=O)CSCc1ccco1 |
| 251 °C | Cn1ncc(C(=O)N2CCCC2)c1C(=O)Nc1ccc2nc(-c3cccnc3)nn2c1 |
| 170 to 171 °C | CC(=O)OC1CCC2(C)C(=CCC3C2CCC2(C)C(C(C)CO)=CCC32)C1 (stereo unspecified) |
| 83 to 91 °C | COc1ccc(C2CNC(=O)O2)cc1OCc1ccccc1 (stereo unspecified) |
| 161 to 162 °C | OC(c1ccc2c(c1)CCN2)(C(F)(F)F)C(F)(F)F |
| 149 to 152 °C | N#CC(CO)Cc1cc(O)c(O)c([N+](=O)[O-])c1 (stereo unspecified) |
| 62 to 63 °C | O=C(O)CCCCCCCCCCOc1ccccc1OCc1ccccc1 |

| melting point | Structure (SMILES) |
| --- | --- |
| 197 to 199 °C | Cc1c(NC(=O)CC(C)(C)C)c(C)c2c(c1-c1cccc(N(C)C)c1)OCC2c1ccc(C(C)C)cc1 (stereo unspecified) |
| 187 to 188 °C | Cc1ccc(CSc2nc3cc4c(cc3[nH]2)OCO4)nc1 |
| 108 °C | COc1ccc2cccc(CCNC(C)=O)c2c1 |
| 65 to 67 °C | COc1cnn(-c2ccc(C)cc2)n1 |
| 112 °C | CCCCS(=O)Cc1cc(C)c(CCl)cc1C (stereo unspecified) |
| 258 to 260 °C | O=C1c2ccccc2C(=O)c2c(O)c(S(=O)(=O)c3ccccc3)cc(O)c21 |
| 227 to 229 °C | CC(C)CCn1c(=O)[nH]c2cc(Cl)cc(Cl)c2c1=O |
| 120 to 122 °C | CCCCCCN(Cc1ccccc1)Cc1nc(-c2ccc(-c3ccccc3)cc2)c[nH]1 |
| 177 to 178 °C | Cc1oc(-c2ccccc2)nc1COc1ccc2cc(CCc3nnn[nH]3)oc2c1 |
| 95.1 °C | COc1c(Cl)cc(N2C(=O)N3CCCC3(Cc3ccc(C#N)cc3)C2=O)cc1Cl (stereo unspecified) |
| 168 °C | NC(=O)C(=O)NC(C(=O)OC(c1ccccc1)c1ccccc1)c1ccccc1 (stereo unspecified) |
| 129 °C | COC(=O)c1cc2cc(OC(F)(F)F)ccc2[nH]1 |
| 141 to 142 °C | COCOc1cc(COc2nn(Cc3ccccc3)cc2C=O)ccc1OCc1nc(-c2ccco2)oc1C |
| 84 to 85 °C | COc1cc(CCc2ccc(N)cc2)cc(OC)c1OC |
| 185 to 187 °C | CN1CCN(c2ccc(S(=O)(=O)Oc3c(Cl)cc(Cl)cc3Cl)cc2)C1=O |
| 273 to 274 °C | O=C(C1CCCc2c1c1ccccc1n2Cc1ccccc1)N1CCN(c2ccccc2)CC1 (stereo unspecified) |
| 123 to 126 °C | CCOc1cc2c(cc1OCC)[C@@H]1CCCC[C@@H]1N=C2c1ccc(Cl)nc1 (racemic) |
